Test results from US5939421A, “Quinazoline analogs and related compounds and methods for treating inflammatory conditions” (Signal Pharmaceuticals, Inc., priority 1997, dated 1999).

Assays:
AP-1 = AP-1 assay: -73 collagenase promoter luciferase reporter in stable Jurkat T-cells, PMA/PHA stimulated; format: cell-based; conditions: Homo sapiens, PMA 5 ng/mL + PHA 1 μg/mL, 5 h
Protocol: (§1) Stable human Jurkat T-cells containing an NFκB binding site (from the MHC promoter) fused to a minimal SV-40 promoter driving luciferase expression were used in this experiment. Cells were split to 3×10^5 cells/mL every 2-3 days (cell concentration should not exceed 1×10^6 cells/mL to keep the cells proliferating in log phase). These cells were counted, resuspended in fresh medium containing 10% Serum-Plus at a density of 1×10^6 cells/mL and plated in 96 well round bottom plates (200 μL per well) 18 hours prior to starting the experiment.
(§2) Compounds of this invention, dissolved in dimethyl sulfoxide (3.3, 0.33 and 0.03 μg/mL), were then added to the 96 well plates containing the cells and the plates are incubated for 0.5 h at 37° C. Then 50 ng/mL of phorbol 12-myristate-13-acetate (PMA) and 1 μg/mL of phytohemagglutinin (PHA) was added to each well and the cells were incubated for an additional 5 h at 37° C. The plates were centrifuged at 2200 RPM for 3 minutes at room temperature and then the medium was removed. To each well was added 60 μL of cell lysis buffer and the plates were left at room temperature for 0.25 h. Then 40 μL of each cell extract was transferred to a black 96 well plate and 50 μL of luciferase substrate buffer was added. Luminescence was immediately measured using a Packard TopCount.
(§3) For AP-1, the assay was run as described above for NFκB except stable Jurkat T-cells were used that contained a the -73 collagenase promoter driving luciferase expression. In addition, the concentration of PMA used was 5 ng/mL.
The results of the above assays (expressed as IC50 's, μM) for representative compounds of this invention, as percent inhibition versus control, are presented in Table 3. β-actin was employed as a control […] indicating effects on transcription. The lack of β-actin activity evidences selectivity of the test compounds for the transcription factors AP-1 and NFκB.

NFκB = NFκB assay: luciferase reporter in stable Jurkat T-cells, PMA/PHA stimulated; format: cell-based; conditions: Homo sapiens, PMA 50 ng/mL + PHA 1 μg/mL, 5 h, read-out: NFkB IC50
Protocol: as §1, §2

IL-2 = experiment: Inhibition of PMA/PHA-induced IL-2 production (ELISA, supernatants of AP-1 reporter assay); format: cell-based; conditions: Homo sapiens
Protocol: as §1, §2, §3
(§4) Cytokine levels in the supernatants (25-50 μL aliquots) were determined by ELISA.

IL-8 = experiment: Inhibition of PMA/PHA-induced IL-8 production (ELISA, supernatants of NFκB reporter assay); format: cell-based; conditions: Homo sapiens
Protocol: as §1, §2, §4

mice [1] = conditions: Morris et al., Transplantation Proceedings 1990; cited from earlier work
mice [2] = conditions: Morris et al., Transplantation Proceedings 1990; cited from earlier work; remark: listed apart in the source

Row | IC50 (AP-1) | IC50 (NFκB) | IC50 (IL-2) | IC50 (IL-8) | Structure (SMILES) | activity in the popliteal lymph node (PLN) model (mice [1]) | activity in the delayed-type hypersensitivity (oxazolone) model (mice [2])
1 | 200 nM | 100 nM | 10 nM | 2 nM | CC1=CC(=O)N(Nc2nc(-c3ccccc3)nc3ccccc23)C1=O [Compound 1, 4-(N-AMINOCITRACONAMIDO)-2-PHENYLQUINAZOLINE] |  | 
2 | 100 nM | 100 nM | 700 nM | 100 nM | CC1=CC(=O)N(Nc2nc(-c3cccs3)nc3cnccc23)C1=O [Compound 2, 4-(N-AMINOCITRACONAMIDO)-2-(2'-THIENYL)PYRIDOPYRIMIDINE] |  | 
3 | 100 nM | 10 nM | 50 nM | 30 nM | CC1=CC(=O)N(Nc2nc(C(F)(F)F)nc3ccccc23)C1=O [Compound 3, 4-(N-AMINOCITRACONAMIDO)-2-TRIFLUOROMETHYLQUINAZOLINE] |  | 
4 | 10 nM | 10 nM | 120 nM | 50 nM | COc1cccc2nc(C(F)(F)F)nc(NN3C(=O)C=C(C)C3=O)c12 [Compound 4, 4-(N-AMINOCITRACONAMIDO)-5-METHOXY-2-TRIFLUOROMETHYLQUNINAZOLINE] |  | 
5 | 500 nM | 200 nM | 20 nM | 2 nM | CC1=CC(=O)N(Nc2nc(C(F)(F)F)nc3cccc(C)c23)C1=O [Compound 5, 4-(N-AMINOCITRACONAMIDO)-5-METHYL-2-TRIFLUOROMETHYLQUINAZOLINE] |  | 
6 | 300 nM | 100 nM | 500 nM | 50 nM | CC1=CC(=O)N(Nc2nc(C(F)(F)F)nc3cc(Cl)ccc23)C1=O [Compound 6, 4-(N-AMINOCITRACONAMIDO)-7-CHLORO-2-TRIFLUOROMETHYLQUINAZOLINE] |  | 
7 | 90 nM | 60 nM | 40 nM | 50 nM | CSc1ccc2nc(C(F)(F)F)nc(NN3C(=O)C=C(C)C3=O)c2c1 [Compound 8, 4-(N-AMINOCITRACONAMIDO)-6-METHYLTHIO-2-TRIFLUOROMETHYLQUNINAZOLINE] |  | 
8 | 10000 nM | 8000 nM |  |  | CC1=CC(=O)N(Nc2nc(C(F)(F)F)nc3ccc(S(C)(=O)=O)cc23)C1=O [Compound 10, 4-(N-AMINOCITRACONAMIDO)-6-METHYLSULFONYL-2-TRIFLUOROMETHYLQUNINAZOLINE] |  | 
9 | 70 nM | 40 nM |  |  | CC1=CC(=O)N(Nc2nc(-c3cccs3)nc3ccccc23)C1=O [Compound 11, 4-(N-AMINOCITRACONAMIDO)-2-(2'-THIENYL)QUNINAZOLINE] |  | 
10 | 1700 nM | 2200 nM |  |  | CC1=CC(=O)N(N(C)c2nc(-c3cccs3)nc3ccccc23)C1=O [Compound 12, 4-(N-METHYL-N-AMINOCITRACONAMIDO)-2-(2'-THIENYL)QUNINAZOLINE] |  | 
11 | 8 nM | 8 nM |  |  | COc1cccc2nc(-c3cccs3)nc(NN3C(=O)C=C(C)C3=O)c12 [Compound 13, 4-(N-AMINOCITRACONAMIDO)-5-METHOXY-2-(2'-THIENYL)QUINAZOLINE] |  | 
12 | 3 nM | 2 nM |  |  | COc1ccc2nc(-c3cccs3)nc(NN3C(=O)C=C(C)C3=O)c2c1 [Compound 14, 4-(N-AMINOCITRACONAMIDO)-6-METHOXY-2-(2'-THIENYL)QUNINAZOLINE] |  | 
13 | 20 nM | 10 nM |  |  | COc1ccc2c(NN3C(=O)C=C(C)C3=O)nc(-c3cccs3)nc2c1 [Compound 15, 4-(N-AMINOCITRACONAMIDO)-7-METHOXY-2-(2'-THIENYL)QUINAZOLINE] |  | 
14 | 20 nM | 20 nM |  |  | COc1cccc2c(NN3C(=O)C=C(C)C3=O)nc(-c3cccs3)nc12 [Compound 16, 4-(N-AMINOCITRACONAMIDO)-8-METHOXY-2-(2'-THIENYL)QUNINAZOLINE] |  | 
15 | 70 nM | 40 nM |  |  | COc1cc2nc(-c3cccs3)nc(NN3C(=O)C=C(C)C3=O)c2cc1OC [Compound 17, 4-(N-AMINOCITRACONAMIDO)-6,7-DIMETHOXY-2-(2'-THIENYL)QUINAZOLINE] |  | 
16 | 20 nM | 10 nM |  |  | COc1cc2c(NN3C(=O)C=C(C)C3=O)nc(-c3cccs3)nc2c(OC)c1OC [Compound 18, 4-(N-AMINOCITRACONAMIDO)-6,7,8-TRIMETHOXY-2-(2'-THIENYL)QUNINAZOLINE] |  | 
17 | 70 nM | 100 nM |  |  | COc1cccc2nc(-c3cccs3)nc(N(C)N3C(=O)C=C(C)C3=O)c12 [Compound 19, 4-(N-METHYL-N-AMINOCITRACONAMIDO)-5-METHOXY-2-(2'-THIENYL)QUNINAZOLINE] |  | 
18 | 70 nM | 200 nM |  |  | CC1=CC(=O)N(Nc2nc(-c3cccs3)nc3cccc(F)c23)C1=O [Compound 20, 4-(N-AMINOCITRACONAMIDO)-5-FLUORO-2-(2'-THIENYL)QUINAZOLINE] |  | 
19 | 30 nM | 20 nM |  |  | CC1=CC(=O)N(Nc2nc(-c3cccs3)nc3cccc(Cl)c23)C1=O [Compound 21, 4-(N-AMINOCITRACONAMIDO)-5-CHLORO-2-(2'-THIENYL)QUINAZOLINE] |  | 
20 | 30 nM | 10 nM |  |  | CC1=CC(=O)N(Nc2nc(-c3cccs3)nc3cccc(C)c23)C1=O [Compound 22, 4-(N-AMINOCITRACONAMIDO)-5-METHYL-2-(2'-THIENYL)QUNINAZOLINE] |  | 
21 | 40 nM | 40 nM |  |  | CC1=CC(=O)N(Nc2nc(-c3cccs3)nc3cc(N(C)C)ccc23)C1=O [Compound 23, 4-(N-AMINOCITRACONAMIDO)-7-DIMETHYLAMINO-2-(2'-THIENYL)QUINAZOLINE] |  | 
22 |  |  |  |  | O=P1(N(CCCl)CCCl)NCCCO1 (stereo not shown) [cyclophosphamide] | active | active

Row | Structure (SMILES) | IC50 (AP-1) | IC50 (NFκB) | IC50 (IL-2) | IC50 (IL-8) | activity in the popliteal lymph node (PLN) model (mice [1]) | activity in the delayed-type hypersensitivity (oxazolone) model (mice [2])
23 | CC1=CC(=O)N(Nc2nc(C(F)(F)F)nc3cc(N4CCCCC4)ccc23)C1=O [Compound 7, 4-(N-AMINOCITRACONAMIDO)-7-(N-PIPERIDYL)-2-TRIFLUOROMETHYLQUNINAZOLINE] |  | 100 nM | 70 nM | 5 nM |  | 
